In ChEMBL document CHEMBL4665857, “Optimization of linear and cyclic peptide inhibitors of KEAP1-NRF2 protein-protein interaction” (Bioorg Med Chem, 2020):
Non-standard residues stand in square brackets, D forms with d. Residues, ends and D or L forms follow the SMILES beside them. Phe(4-CONH2) = NC(=O)c1ccc(C[C@H](N)C(=O)O)cc1; Pro(cis-4-F) = O=C(O)[C@@H]1C[C@H](F)CN1; hPhe = N[C@@H](CCc1ccccc1)C(=O)O; hSer = N[C@@H](CCO)C(=O)O

Target: Kelch-like ECH-associated protein 1 (Homo sapiens, UniProt Q14145)
Sequence (Q14145 whole entry, the tested form may be a part): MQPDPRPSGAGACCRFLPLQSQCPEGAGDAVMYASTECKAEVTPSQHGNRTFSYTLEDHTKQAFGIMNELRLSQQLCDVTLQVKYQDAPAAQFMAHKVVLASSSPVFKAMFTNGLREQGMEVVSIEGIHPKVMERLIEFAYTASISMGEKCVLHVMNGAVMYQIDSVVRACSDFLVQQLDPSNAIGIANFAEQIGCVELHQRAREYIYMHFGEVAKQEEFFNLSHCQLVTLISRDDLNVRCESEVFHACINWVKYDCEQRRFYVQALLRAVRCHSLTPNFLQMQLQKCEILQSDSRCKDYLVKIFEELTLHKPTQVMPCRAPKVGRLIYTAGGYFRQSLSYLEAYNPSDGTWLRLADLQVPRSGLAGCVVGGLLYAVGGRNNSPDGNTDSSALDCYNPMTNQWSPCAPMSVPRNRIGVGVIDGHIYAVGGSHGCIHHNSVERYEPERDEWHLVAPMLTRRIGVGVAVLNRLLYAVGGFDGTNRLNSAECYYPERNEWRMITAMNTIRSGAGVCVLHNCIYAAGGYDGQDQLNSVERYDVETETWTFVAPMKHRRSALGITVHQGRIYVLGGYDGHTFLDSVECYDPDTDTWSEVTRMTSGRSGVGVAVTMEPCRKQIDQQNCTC
Assay: Binding affinity to human KEAP1 Kelch domain (322 to 609 residues) incubated for 60 mins by TR-FRET assay

Compound	IC50 [µM]
CC(=O)N[C@@H](CC(C)C)C(=O)N[C@@H](CC(=O)O)C(=O)N1C[C@@H](F)C[C@H]1C(=O)N[C@@H](CCC(=O)O)C(=O)N[C@@H](Cc1ccccc1)C(=O)NCC(=O)N[C@@H](CCC(=O)O)C(=O)N[C@@H](Cc1ccccc1)C(=O)N[C@@H](CC(C)C)C(N)=O (Ac-LD[Pro(cis-4-F)]EFGEFL-NH2)	> 64
Ac-LDEQTGEFL-NH2	> 64

Next, values leading:

IC50 [µM]	Compound
> 64	CC(=O)N[C@@H](CC(C)C)C(=O)N[C@@H](CC(=O)O)C(=O)N[C@@H](CCC(=O)O)C(=O)N[C@@H](CCC(=O)O)C(=O)N[C@H](C(=O)NCC(=O)N[C@@H](Cc1ccc(C(N)=O)cc1)C(=O)N[C@@H](Cc1ccccc1)C(=O)N[C@@H](CC(C)C)C(N)=O)[C@@H](C)O (Ac-LDEETG[Phe(4-CONH2)]FL-NH2)
> 50	CC(=O)N[C@@H](CC(C)C)C(=O)N[C@@H](CC(=O)O)C(=O)N[C@@H](CCC(=O)O)C(=O)N[C@@H](CCC(=O)O)C(=O)N[C@H](C(=O)NCC(=O)N[C@@H](CCO)C(=O)N[C@@H](Cc1ccccc1)C(=O)N[C@@H](CC(C)C)C(N)=O)[C@@H](C)O (Ac-LDEETG[hSer]FL-NH2)
> 64	CC(=O)N[C@@H](CC(C)C)C(=O)N[C@@H](CC(=O)O)C(=O)N[C@@H](CCC(=O)O)C(=O)N[C@@H](CCc1ccccc1)C(=O)N[C@H](C(=O)NCC(=O)N[C@@H](CCC(=O)O)C(=O)N[C@@H](Cc1ccccc1)C(=O)N[C@@H](CC(C)C)C(N)=O)[C@@H](C)O (Ac-LDE[hPhe]TGEFL-NH2)
